{
  "source": "patent US20030045482A1",
  "about": "“Using D-ribose with or without anti-microbial agents to enhance healing and subsequent recovery by both synthesizing and sparing NAD derivatives” (priority 2000, published 2003)",
  "key": {"[1]": {"system": "infected wounds", "assay": "rate of healing of infected wounds, ribose combined with antibiotics", "type": "in vivo", "text": "(§1) Only with respect to the skin has ribose been used for healing purposes, and these are for wound healing in which ribose in combination with other nutrients improved the rate of healing. […] It then became reasonable to assume that this combination should be extended to internal wounds."}, "[2]": {"system": "clean wounds", "assay": "rate of healing of clean wounds", "type": "in vivo", "conditions": "ribose by itself", "text": "as §1"}, "[3]": {"system": "ATP synthesis", "conditions": "with de novo D-ribose; 72 to 96 hours ordinarily required from glucose; cited from earlier work"}, "[4]": {"system": "appetite", "assay": "appetite after D-ribose aqueous solution given during a meal", "type": "in vivo, people", "text": "This brings up the paradoxical role that ribose plays with respect to appetite. Ribose is offered to consumers primarily because it is rate-limiting in the production of phosphoribosylpyrophosphate (PRPP), a precursor for salvage and for de novo adenine nucloeotide synthetic pathways, which maintain, AMP and ADP (adenosine diphosphate) for re-synthesis of ATP. The high-energy bonds of ATP are the direct source for muscle contraction including myocardial contractions but also energize every cell in the body, especially the immune system under attack. The presence of de novo D-ribose not only enables ATP to be synthesized much faster, but its presence also serves to stimulate the salvage of these nucleotides. With this in mind, a curious thing has been observed. […] The only explanation for this is that the salvage of these nucleotides especially ATP is stimulated by forcibly spraying the ribose onto the tongue. This causes the stomach to send out less of the hormone ghrelin and a full feeling ensues with less food. If a person is ill, care must be taken not to spray ribose forcibly on the tongue by pump action or compressed gas, but rather have it be swallowed immediately or given parenterally."}},
  "data": [
    {"smiles": "O=C[C@H](O)[C@H](O)[C@H](O)CO", "note": "[D-ribose]", "values": [
      {"measurement": "rate of healing of infected wounds", "setting": "[1]", "result": "will improve the rate of healing infected wounds"},
      {"measurement": "rate of healing of clean wounds", "setting": "[2]", "result": "will improve the rate of healing of clean wounds"},
      {"measurement": "time for synthesis of ATP", "setting": "[3]", "result": "≥ 8", "unit": "h"},
      {"measurement": "effect on appetite", "setting": "[4]; aqueous solution sprayed forcibly by pump action on the tongue during a meal", "result": "causes the appetite to abate in many people"},
      {"measurement": "effect on appetite", "setting": "[4]; ribose swallowed", "result": "far less such effect"}
    ]}
  ]
}
